Several values for one entry are separate records, joined by “and”; a condition that tells them apart may be missing. Equal values may be shown once. Read-outs that look alike come from different tables or passages of the source.
Experiments:
[1] = target: T1, FKBP51FK1 (Homo sapiens, UniProt Q13451); test: biochemical
T1 sequence (Q13451 42-130 limits assumed): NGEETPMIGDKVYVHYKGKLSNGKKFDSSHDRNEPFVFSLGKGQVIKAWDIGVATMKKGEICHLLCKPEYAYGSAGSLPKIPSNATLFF
Procedure: (§1) All macrocyclic compounds were tested in a competitive fluorescence polarization assay for binding towards FKBP51 as well as the homologs FKBP12, FKBP12.6 and FKBP52 (Table 1).
(§2) Example 8: […] of the Macrocyclic FKBP51 Ligands by SPPS

[2] = not given; remark: listed apart in the source
[3] = target: FKBP12 (Homo sapiens, UniProt P62942); test: competitive fluorescence polarization assay, binding to FKBP12
Procedure: as §1, §2

[4] = target: FKBP12.6 (Homo sapiens, UniProt P68106); test: competitive fluorescence polarization assay, binding to FKBP12.6
Procedure: as §1, §2

[5] = Ki [nM] FKBP51FK1, Table 1, competitive Fluorescence Polarization Assay
[6] = Table 1, competitive Fluorescence Polarization Assay, read-out: Ki [nM] FKBP12
[7] = Table 1, competitive Fluorescence Polarization Assay, read-out: Ki [nM] FKBP12.6

Chain of FKBP12 (P62942 whole entry): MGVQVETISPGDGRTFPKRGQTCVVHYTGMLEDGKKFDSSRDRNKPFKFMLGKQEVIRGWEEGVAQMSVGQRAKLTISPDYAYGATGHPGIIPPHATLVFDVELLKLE
Chain of FKBP12.6 (P68106 whole entry): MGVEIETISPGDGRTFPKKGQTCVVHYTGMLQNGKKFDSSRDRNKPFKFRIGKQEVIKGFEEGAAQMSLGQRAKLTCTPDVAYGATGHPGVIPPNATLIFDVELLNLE

Q: For `COc1ccc(CC[C@H]2OC(=O)[C@@H]3CCCCN3C(=O)[C@@H](C3CCCCC3)NC(=O)C(C)(C)NC(=O)COc3cc(O)cc2c3)cc1OC` [Compound 103, (2R,5S,12R)-12-cyclohexyl-2-[2-(3,4-dimethoxyphenyl)ethyl]-22-hydroxy-15,15-dimethyl-3,19-dioxa-10,13,16-triazatricyclo[18.3.1.0^5,10]tetracosa-1(24),20,22-triene-4,11,14,17-tetrone], which “affinity (in words)” value [1] is on record?
A: bound similarly to the glycine derivative 83

Q: And the Ki ([1]; FKBP51FK1 Ki [μM], Table 2, [a] standard error from three, [c] error from two independent measurements)?
A: 0.37 µM

Q: And the ring closure, isolated yield (from H-Aib-dChg-Pip-[O-(R)-CH(CH2CH2-3,4-dimethoxyphenyl)-C6H3(O-resin)-OCH2CO]-OH?, amide bond, 17-membered ring, resin, with chain assembly)?
A: 20%

Q: With `COc1ccc(CC[C@H]2OC(=O)[C@@H]3CCCCN3C(=O)[C@@H](C3CCCCC3)C/C=C/COCCOc3cccc2c3)cc1OC` as the compound, how does the ring closure, isolated yield (from C=CCOCCOc1cccc([C@H](CCc2ccc(OC)c(OC)c2)OC(=O)[C@H]2CCCCN2C(=O)[C@H](CC=C)C2CCCCC2)c1, rcm bond, 18-membered ring, Grubbs II (0.1 eq), DCM, 0.5 mM, 30.0 °C, 2.5 h) read?
A: 92%

Q: With `COc1ccc(CC[C@@H]2OC(=O)[C@H]3CCCCN3C(=O)[C@@H](C3CCCCC3)c3cc(OC)c(OC)c(c3)OCCCOc3cccc2c3)cc1OC` as the compound, how does the ring closure, yield after HPLC ([2]; from COc1ccc(CC[C@H](OC(=O)[C@H]2CCCCN2C(=O)[C@H](c2cc(OC)c(OC)c(OCCCI)c2)C2CCCCC2)c2cccc(O)c2)cc1OC, ether bond, 18-membered ring, K2CO3 (2 equiv), MeCN, 0.3 mM) read?
A: 26%

Q: Which ring closure, yield after HPLC ([2]; from C=CCOCCCOc1cc([C@@H](C(=O)N2CCCC[C@@H]2C(=O)O[C@@H](CCc2ccc(OC)c(OC)c2)c2cccc(OCC=C)c2)C2CCCCC2)cc(OC)c1OC, rcm bond, 23-membered ring, Grubbs II (0.1 equiv)/1,4-benzoquinone, DCM, 1.0 mM) does the source give for `COc1ccc(CC[C@@H]2OC(=O)[C@H]3CCCCN3C(=O)[C@@H](C3CCCCC3)c3cc(OC)c(OC)c(c3)OCCCOCC=CCOc3cccc2c3)cc1OC` here?
A: 58% and 33%

Q: With `COc1ccc(CC[C@@H]2OC(=O)[C@H]3CCCCN3C(=O)[C@@H](C3CCCCC3)c3cc(OC)c(c(OC)c3)OCCCOc3cccc2c3)cc1OC` as the compound, how does the ring closure, isolated yield (from COc1ccc(CC[C@H](OC(=O)[C@H]2CCCCN2C(=O)[C@H](c2cc(OC)c(OCCCI)c(OC)c2)C2CCCCC2)c2cccc(O)c2)cc1OC, ether bond, 19-membered ring, K2CO3 (2 equiv), MeCN, 0.5 mM) read?
A: 81%

Q: For `COc1ccc(CC[C@@H]2OC(=O)[C@H]3CCCCN3C(=O)[C@@H](C3CCCCC3)c3cc(OC)c(OC)c(c3)OCCOc3cccc2c3)cc1OC`, which ring closure, yield after HPLC ([2]; from COc1ccc(CC[C@H](OC(=O)[C@H]2CCCCN2C(=O)[C@H](c2cc(OC)c(OC)c(OCCI)c2)C2CCCCC2)c2cccc(O)c2)cc1OC, ether bond, 17-membered ring, K2CO3 (2 equiv), MeCN, 1.0 mM) is on record?
A: 42%

Q: For `COc1ccc(CC[C@H]2OC(=O)[C@@H]3CCCCN3C(=O)[C@@H](C3CCCCC3)NC(=O)[C@@H]3CCCN3C(=O)COc3cccc2c3)cc1OC` [Compound 92, (9S,12R,19S,22R)-12-cyclohexyl-22-[2-(3,4-dimethoxyphenyl)ethyl]-2,21-dioxa-5,11,14-triazatetracyclo[21.3.1.0^5,9.0^14,19]heptacosa-1(26),23(27),24-triene-4,10,13,20-tetrone], which “affinity (in words)” value [1] is on record?
A: substantially reduced affinity

Q: What about the Ki ([3]; Table 2, read-out: FKBP12 Ki) of the same compound?
A: > 80000 nM

Q: What about the Ki ([4]; Table 2, read-out: FKBP12.6 Ki) of the same compound?
A: > 80000 nM

Q: With `COc1cccc([C@@H](CCc2ccc(OC)c(OC)c2)OC(=O)[C@@H]2CCCCN2C(=O)[C@H](c2cc(OC)c(OC)c(OC)c2)C2CCCCC2)c1` [Compound A1, reference compound] as the compound, how does the Ki [1, 5] read?
A: 0.094 µM

Q: And the Ki [3, 6]?
A: 222 nM

Q: And the Ki [4, 7]?
A: 199 nM

Q: Which Ki [1, 5] does the source give for `COc1ccc(CCC2OC(=O)C3CCCCN3C(=O)C(C3CCCCC3)c3cc(OC)c(OC)c(c3)OCC(O)C(O)COc3cccc2c3)cc1OC` (single isomer, unassigned) [Compound 64b] here?
A: 0.013 µM

Q: And the Ki [3, 6]?
A: 34 nM

Q: And the Ki [4, 7]?
A: 17 nM

Q: Which Ki [1, 5] does the source give for `COc1ccc(CC[C@H]2OC(=O)[C@@H]3CCCCN3C(=O)[C@@H](C3CCCCC3)c3cc(OC)c(c(OC)c3)OC/C=C/COc3cccc2c3)cc1OC` [31-(E)] here?
A: 0.056 µM

Q: What about the Ki [3, 6] of the same compound?
A: 289 nM

Q: What about the Ki [4, 7] of the same compound?
A: 263 nM

Q: Which Ki [1, 5] does the source give for `COc1ccc(CC[C@H]2OC(=O)[C@@H]3CCCCN3C(=O)[C@@H](C3CCCCC3)c3cc(OC)c(c(OC)c3)OCCCCCOc3cccc2c3)cc1OC` [Compound 40] here?
A: 0.102 µM

Q: What about the Ki [3, 6] of the same compound?
A: 204 nM

Q: And the Ki [4, 7]?
A: 198 nM

Q: With `COc1ccc(CC[C@@H](OC(=O)[C@@H]2CCCCN2C(=O)[C@H](c2cc(OC)c(OC)c(OC)c2)C2CCCCC2)c2cccc(OCC(=O)O)c2)cc1OC` [SAFit1, reference compound] as the compound, how does the Ki ([1]; read-out: FKBP51FK1 Ki, Table 2, [a] standard error from three, [c] error from two independent measurements) read?
A: 0.004 ± 0.001 µM

Q: What about the Ki ([3]; Table 2, read-out: FKBP12 Ki) of the same compound?
A: 163 ± 9 nM

Q: And the Ki ([4]; Table 2, read-out: FKBP12.6 Ki)?
A: 19 ± 2 nM
